Experimental data taken from patent publication US20220206013A1, “CYSTIC FIBROSIS URINE TEST” (Aarhus Universitet, priority 2019, published 2022).

How the values were obtained:
CFTR = CFTR (Homo sapiens, UniProt P13569); experiment: clinical
Experimental: Twelve healthy adult volunteers aged 22 to 59 years of both genders were tested. The volunteers were healthy and without any known CFTR protein mutations.
In addition, the venous acid-base status was checked.
The subjects then drank 200 mL of tap water. In addition, the venous acid-base status was checked.
The subjects then drank 200 mL of tap water.

[1] = tested on: CFTR wild type, CFTR knock out and pendrin knock-out mice; settings: WT mice; gavage 60 μmoles NaHCO3/25 g bodyweight; cumulative sample after 3 hours
Experimental: The experiments were performed in littermate mice bred from heterozygotes. Mice of both genders were used at an approximate age of 2 to 4 months.
The Pendrin KO mouse was produced by insertion of a neo-cassette replacing exon 8 in the Scl26a4 gene, leading to loss of pendrin expression as described in (Everett et al. 2001). It was purchased from The Jackson Laboratory, JAX stock #018424.
The global CFTR (CFTRG) KO mouse (CFTR S489X-; FABP-hCFTR) was purchased from The Jackson Laboratory, JAX stock #002364. This is a transgenic global CFTR KO mouse strain with expression of human CFTR (hCFTR) under the promoter activity of rat fatty acid binding protein 2, intestinal (Fabp2) promoter, which corrects the otherwise lethal intestinal phenotype in CFTR KO mice (Zhou et al. 1994).
Awake mice (animals as described under section A.) were manually restrained and a gavage needle was inserted into their stomach. […] Mice were then placed in metabolic cages and their urine collected for further measurement.
Urine was sampled and accumulated for 3 hr before measurement.

[2] = molecular target: CFTR (homozygote mutation ΔF508) (Homo sapiens, UniProt P13569, DEL508-508); experiment: CF urine test (oral bicarbonate gastric load) in adult CF patients, before and after CFTR modulator drug
Experimental: After 1 hr. urine samples were collected and the participant drank 200 ml of tap water. One hour later, urine samples were collected again and the participant drank further 200 ml of tap water. After three hours from the baseline the final urine sample were collected and the participants drank another 200 ml of tap water.
Nine adult CF patients aged 19 to 45 of both genders with the homozygote mutation ΔF508 were signed up for this test.
Three of the adult CF patients were treated with Orkambi® (400 mg lumacaftor/200 mg ivacaftor twice a day) for four weeks before testing the CF patients for a second time. These included patients of both genders between the age of 19 and 45.
Six of the adult CF patients were treated with Symkevi® (100 mg tezacaftor and 150 mg ivacaftor in the morning and 150 mg ivacaftor in the evening) for four weeks before testing the CF patients for a second time. These included patients of both genders between the age of 20 and 40.
Five ml of urine were given into a 250 ml glass flask.
A two-tailed paired t-test was used to test for significance. A p-value≤0.5 was chosen to represent significance.
At t=1 hr, the subjects were to void the first sample. […] The subjects then drank 200 mL of tap water. In addition, the venous acid-base status was checked.
At t=2 hrs, the subjects were to void the second sample. […] The subjects then drank 200 mL of tap water.
At t=3 hrs, the subjects were to void the third sample. […] The subjects then drank 200 mL of tap water.

Pendrin WT and KO mice [3] = experiment: Secretin-induced urine alkalisation and urine HCO3− excretion in anaesthetized pendrin WT/KO mice; assay type: in vivo, mouse
Experimental: (§1) Induction of anaesthesia was performed with i.p. injection of […] of a ketamine-xylazine mix (10 mg/ml and 1 mg/ml). An i.v. access was obtained by cannulation of one tail vein and the animals were kept in anaesthesia by a continuous rate infusion (CRI) corresponding to half of the induction dose pr. hour. Mice were infused with a solution containing 145 mM NaCl at pH 7.4 with a perfusion rate of 0.1 ml h^−1 via a syringe pump (Model 33 Twin syringe pump, Harvard Apparatus, USA).
(§2) Bladder catheterization was introduced and urine was collected every 5 minutes. Urinary pH was measured continuously throughout the experiment by placement of a micro pH electrode (pH-200, Unisense, Aarhus, DK) in the outflow of the catheter and the reference electrode was placed into the suprapubic operation wound (see FIG. 7A). Following a 30-min. control period, mice were injected intraperitoneally with either secretin (10 μg/25 g BW) or saline.
(§3) The urine was collected and pooled for 30 minutes allowing measurement of mean [HCO3^−] in the time periods 0-30, 30-60 and 60-90 after starting the experiment. In experiments with too low urine output, urine was pooled to allow analysis of [HCO3^−] before and after secretin application. Measurements were performed by a Corning 960 analyser (Savory et al. 1978) and calibrated to small volume samples of 50 μl or alternatively by a custom built infrared CO2-sensor based system for smaller volume samples (Trepiccione et al. 2017) (10-40 μl).
(§4) All values are presented as mean values ±standard error of mean (SEM). Due to a low number of observations in each series, n=7 in most, we were not able to determine whether the data followed a Gaussian distribution. Therefore, two-tailed Wilcoxon matched pairs signed rank test, in paired data, and two-tailed Mann-Whitney test, in unpaired data, were performed to test for significance.

[4] = tested on: global CFTR WT and KO mice; experiment: Secretin-induced urine alkalisation and urine HCO3− excretion in global CFTR WT/KO mice; assay type: in vivo, mouse
Experimental: as §1, §2, §3, §4

[5] = tested on: tubule specific CFTR (CFTR-TS) WT and KO mice; experiment: Secretin-induced urine alkalisation and urine HCO3− excretion in tubule specific CFTR WT/KO mice; assay type: in vivo, mouse
Excerpt: The Renal tubule specific CFTR (CFTRTS) KO mouse was produced in the laboratory of Dr. Kunzelmann and Dr. Schreiber in Regensburg/Germany and performed in compliance with the guidelines for the welfare of experimental animals issued by the Federal Government of Germany. C57BL6/J CFTR fl10 mice (Hodges et al. 2008) were bred in a C57Bl/6J background generated by the Cre/loxP-system with tissue specific Cre-recombinase expression from the Pax8 locus (Kos 2004; Bouchard et al. 2004).
as §1, §2, §3, §4

Pendrin WT and KO mice [6] = experiment: Secretin-induced urine alkalisation and urine HCO3− excretion in anaesthetized pendrin WT/KO mice; assay type: in vivo, mouse; remark: listed apart in the source
[7] = both, human, in vivo, po, 79 mg/kg
[8] = 6 CF patients, pre-symkevi, oral bicarbonate load

CFTR, sequence (P13569 whole entry): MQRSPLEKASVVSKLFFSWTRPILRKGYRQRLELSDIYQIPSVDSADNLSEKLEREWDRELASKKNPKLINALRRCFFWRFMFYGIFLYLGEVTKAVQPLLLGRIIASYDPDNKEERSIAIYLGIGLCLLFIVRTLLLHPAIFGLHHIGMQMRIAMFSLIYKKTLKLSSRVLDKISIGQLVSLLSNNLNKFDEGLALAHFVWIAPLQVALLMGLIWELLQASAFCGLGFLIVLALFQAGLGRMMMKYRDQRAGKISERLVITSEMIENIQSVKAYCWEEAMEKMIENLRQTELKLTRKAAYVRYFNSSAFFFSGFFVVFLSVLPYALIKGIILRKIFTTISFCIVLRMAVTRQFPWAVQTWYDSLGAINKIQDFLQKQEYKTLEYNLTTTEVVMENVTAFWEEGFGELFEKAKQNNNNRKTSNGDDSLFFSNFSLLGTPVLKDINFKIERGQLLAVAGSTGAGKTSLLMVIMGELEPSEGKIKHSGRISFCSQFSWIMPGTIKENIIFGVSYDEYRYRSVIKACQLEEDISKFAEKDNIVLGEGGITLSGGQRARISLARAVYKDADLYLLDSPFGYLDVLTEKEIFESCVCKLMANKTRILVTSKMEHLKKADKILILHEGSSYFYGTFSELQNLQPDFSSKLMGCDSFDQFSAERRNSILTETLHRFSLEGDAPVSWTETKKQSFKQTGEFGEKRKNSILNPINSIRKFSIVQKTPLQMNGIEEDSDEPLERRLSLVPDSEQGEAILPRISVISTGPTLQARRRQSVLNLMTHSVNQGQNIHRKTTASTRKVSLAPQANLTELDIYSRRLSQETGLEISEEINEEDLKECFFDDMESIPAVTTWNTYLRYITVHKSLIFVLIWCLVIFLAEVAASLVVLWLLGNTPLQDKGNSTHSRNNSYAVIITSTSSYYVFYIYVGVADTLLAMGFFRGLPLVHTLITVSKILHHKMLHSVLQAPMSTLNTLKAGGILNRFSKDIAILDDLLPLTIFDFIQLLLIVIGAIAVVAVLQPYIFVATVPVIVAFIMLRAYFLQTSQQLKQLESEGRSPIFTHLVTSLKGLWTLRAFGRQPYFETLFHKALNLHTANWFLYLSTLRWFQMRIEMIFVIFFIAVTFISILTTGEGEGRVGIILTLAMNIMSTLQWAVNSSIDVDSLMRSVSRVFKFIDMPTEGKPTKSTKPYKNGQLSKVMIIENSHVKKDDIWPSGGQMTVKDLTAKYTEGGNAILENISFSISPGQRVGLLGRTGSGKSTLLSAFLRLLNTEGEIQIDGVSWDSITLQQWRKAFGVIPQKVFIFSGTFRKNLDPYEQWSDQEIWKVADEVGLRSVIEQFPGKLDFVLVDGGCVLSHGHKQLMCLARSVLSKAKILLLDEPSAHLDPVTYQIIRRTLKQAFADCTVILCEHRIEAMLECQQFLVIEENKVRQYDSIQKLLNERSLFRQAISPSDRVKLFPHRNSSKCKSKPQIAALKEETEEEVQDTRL
CFTR (homozygote mutation ΔF508), sequence (P13569 with tags, fused parts or gaps DEL508-508): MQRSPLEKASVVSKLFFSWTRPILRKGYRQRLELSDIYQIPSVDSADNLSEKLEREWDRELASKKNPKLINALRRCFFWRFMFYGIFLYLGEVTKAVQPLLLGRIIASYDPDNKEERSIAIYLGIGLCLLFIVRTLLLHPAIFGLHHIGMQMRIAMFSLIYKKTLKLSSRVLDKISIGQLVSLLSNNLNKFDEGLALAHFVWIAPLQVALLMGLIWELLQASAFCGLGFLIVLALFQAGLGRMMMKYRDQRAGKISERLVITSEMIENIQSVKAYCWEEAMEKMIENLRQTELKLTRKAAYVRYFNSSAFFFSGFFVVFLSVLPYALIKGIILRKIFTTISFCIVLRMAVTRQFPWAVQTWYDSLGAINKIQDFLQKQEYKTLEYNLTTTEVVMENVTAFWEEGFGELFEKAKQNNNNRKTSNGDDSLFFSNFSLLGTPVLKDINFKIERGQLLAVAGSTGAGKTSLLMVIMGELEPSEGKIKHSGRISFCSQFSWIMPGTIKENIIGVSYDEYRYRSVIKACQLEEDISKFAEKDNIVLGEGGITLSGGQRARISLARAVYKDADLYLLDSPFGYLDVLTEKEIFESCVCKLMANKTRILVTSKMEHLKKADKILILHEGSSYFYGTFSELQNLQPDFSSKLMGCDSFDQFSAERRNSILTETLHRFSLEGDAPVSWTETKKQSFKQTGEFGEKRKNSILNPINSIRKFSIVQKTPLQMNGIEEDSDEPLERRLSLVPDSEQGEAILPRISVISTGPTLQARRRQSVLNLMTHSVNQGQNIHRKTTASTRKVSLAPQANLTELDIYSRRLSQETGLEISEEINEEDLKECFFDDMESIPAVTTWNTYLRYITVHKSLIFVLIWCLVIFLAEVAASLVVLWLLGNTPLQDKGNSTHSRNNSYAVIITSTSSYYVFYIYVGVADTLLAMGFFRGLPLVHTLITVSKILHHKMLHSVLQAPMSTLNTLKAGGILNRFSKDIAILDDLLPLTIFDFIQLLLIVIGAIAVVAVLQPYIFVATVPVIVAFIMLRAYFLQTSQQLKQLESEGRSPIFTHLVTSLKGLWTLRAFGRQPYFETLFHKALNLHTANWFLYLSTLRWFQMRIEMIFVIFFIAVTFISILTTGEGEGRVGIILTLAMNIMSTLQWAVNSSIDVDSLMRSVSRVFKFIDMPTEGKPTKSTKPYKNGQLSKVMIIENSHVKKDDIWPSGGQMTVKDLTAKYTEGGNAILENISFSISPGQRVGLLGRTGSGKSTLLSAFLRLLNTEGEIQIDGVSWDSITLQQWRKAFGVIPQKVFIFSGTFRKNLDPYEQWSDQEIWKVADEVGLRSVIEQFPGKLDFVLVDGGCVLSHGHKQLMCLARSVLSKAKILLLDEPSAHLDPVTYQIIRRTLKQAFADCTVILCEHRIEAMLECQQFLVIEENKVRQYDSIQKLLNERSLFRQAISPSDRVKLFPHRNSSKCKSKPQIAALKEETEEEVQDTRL

Compound: O=C(O)O [bicarbonate, NaHCO3]
- Cmax (CFTR; [7]): 45000 to 65000 µM
- Tmax (CFTR; [7]): 2 h
- AUC0-3 of excreted bicarbonate (CFTR; healthy controls, oral 79 mg/kg BW NaHCO3, FIG. 5E): 85-123 mmol bicarbonate *t/L
- urine bicarbonate concentration and urine pH [1]: found to increase
- AUC0-3 of excreted bicarbonate [2, 8]: 22-45 mmol bicarbonate*t/L
- peak value of urine bicarbonate (t=2 hrs) [2, 8]: 11 to 28 mM
- AUC0-3 of excreted bicarbonate ([2]; CF patients before treatment with Orkambi, oral bicarbonate load): 14-58 mmol bicarbonate *t/L
- Cmax [2, 7]: 14000 to 28000 µM
- Tmax ([2]; both, human, in vivo, po, 79 mg/kg BW): 2 h

Compound: secretin
- pHu alkalisation (Pendrin WT and KO mice [3]; pendrin KO mice, 10 μg/25 g BW i.p., FIG. 9B): no significant pHu alkalisations
- urinary HCO3− excretion vs vehicle (Pendrin WT and KO mice [3]; pendrin KO mice, data not shown): No differences
- urinary [HCO3−] vs vehicle (Pendrin WT and KO mice [3]; pendrin KO mice, n=7, FIG. 9D): No differences
- late pHu effect (Pendrin WT and KO mice [3]; pendrin KO mice, starting some 20 minutes post-injection): urinary acidification
- peak mean urinary alkalisation (Pendrin WT and KO mice [3]; pendrin WT mice, 10 μg/25 g BW i.p., n=7, FIG. 9A): 0.397±0.1 pH units
- peak pHu increase (Pendrin WT and KO mice [3]; pendrin WT mice, 10 μg/25 g BW secretin i.p., FIG. 8C): ~0.38 units
- urinary [HCO3−] (Pendrin WT and KO mice [3]; pendrin WT mice, 60 minutes following injection, vehicle 0.1697 ±0.1 mM, FIG. 9C): 1.08 ± 0.3 mM
- urine HCO3− excretion rate (Pendrin WT and KO mice [3]; pendrin WT mice, 60 minutes post secretin injection, vehicle 1.18±0.57): 5.61±2.06 nmol/h/g BW
- HCO3− excretion rate and urine [HCO3−] vs starting or control ([4]; global CFTR KO mice, at any point during the experiment, FIG. 10D): No significant differences
- peak difference of pHu vs pH prior to treatment ([4]; global CFTR KO mice, peak 20 min post secretin, n=7, not differing from vehicle treated KO mice): 0.13 pH units
- peak mean urinary alkalisation ([4]; global CFTR WT mice, 10 μg/25 g BW i.p., n=6, FIG. 10A): 0.53±0.24 pH units
- urinary [HCO3−] increase vs control group (Δ30 minutes) ([4]; global CFTR WT mice, FIG. 10C): 3.02 ± 1.06 mM
- ΔHCO3− excretion rate vs control ([4]; global CFTR WT mice, after 60 min, not reaching significance (p=0.09)): 5.55±3.25 nmol/h/g BW
- pHu effect vs control experiments ([5]; CFTR-TS KO mice, FIG. 11B): no significant effect
- urine [HCO3−] and urine HCO3− excretion rate ([5]; CFTRTS KO mice): No significant secretin-induced differences
- peak mean urinary alkalisation ([5]; tubule specific CFTR WT mice, 10 μg/25 g BW i.p., n=7, FIG. 11A): 0.6518±0.11
- urine HCO3− excretion rate, mean difference vs baseline ([5]; tubule specific CFTR WT mice, 60 minutes after secretin treatment, data not shown): 5.623 ± 2.2 nmol/h/kg
- urine [HCO3−] change after secretin administration ([5]; tubule specific CFTR WT mice, highest in first 30 minutes): pronounced increase
- pHu change (Pendrin WT and KO mice [6]; dose of 0.1 μg i.p.): significant increase
- pHu change with dose (Pendrin WT and KO mice [6]; doses of 1, 5 and 10 μg i.p.): increasing pHu alkalisations
